The values that follow come from US10864192B2, “Compositions and methods for inhibiting brain trauma-induced neurodegeneration and related conditions” (priority 2016, dated 2020).

One data set relates to SH-SY5Y cells. The data set is described as follows: Cell proliferation of SH-SY5Y cells (MTS assay). It is filed as cell-based, human. As to conditions: 30 uM, 24 hr. As for the experimental part: SHSYSY cells were exposed for 24 hr to 30 uM concentration of (−)- and (+)-phenserine. After 24 hr cell proliferation was determined by MTS assay. *P,0.05, **p,0.01, and ***p,0.001 compared to control samples without drug.
In general terms: Formazan colour is commonly taken as a measure of viable cells.

In a further data set the test system is SH-SY5Y neuronal cells. The data set is described as follows: Phenserine plus anti-inflammatory drug, oxidative stress and trophic effects in SH-SY5Y cells (MTS assay). How it is done: Human SH-SY5Y neuronal cells were seeded in 96-well plates at a density of 1×10^5 cells per well and allowed to grow for 24 hr. […] […] At 18 hr thereafter a MTS assay was performed per the manufacturers protocol (Abcam, Cambridge, Mass.) to measure cell viability.
For example, instead of aspirin (as shown in FIG. 3A), an NSAID, naproxen, was used under the same experimental conditions at concentrations in FIGS. 3B-3D.

The nature of data set [1]: Plasma concentrations of phenserine and its metabolites in human plasma. The format is in vivo. The settings on record: both sexes, in vivo; for concentration at 1 h: Hour 1; for concentration at 2 h: Hour 2; for concentration at 3 h: Hour 3; for concentration at 4 h: Hour 4. As for the experimental part: The relationship between pharmacokinetic and pharmacodynamics evaluated in FIG. 15 was evaluated in aged volunteers. A total of 32 subjects (60-80 years of age, 11 males/21 females) were screened and enrolled. All participants provided informed consent, the conduct of the study were approved and overseen by the local Review IRB.
For pharmacokinetic (blood concentrations of primary drug and select metabolites) a dose […] additionally was evaluated.
These were centrifuged within 15 min of collection, and stored in a freezer at −70° C. freezer in marked polypropylene tubes until analysis. Phenserine levels were quantified by liquid chromatography/mass spectrometry (LC/MS/MS). In brief, analyses were undertaken on Perkin-Elmer (PE, Norwalk, USA) high performance liquid chromatographic (HPLC) instrumentation. Compound separation was performed on a Phenomenex LUNA C18 column (5 μM, 2.0 mm×150 mm; Torrance, USA), with a Phenomenex guard column (2 mm×30 mm). The mobile phase was 60% acetonitrile (HPLC grade) plus 40% ammonium acetate (v/v) with a flow rate of 0.4 mL/min. […] Thereafter, 2 mL of tert-butyl methyl ether was added and the sample was mixed and flash frozen. The organic layer was decanted, dried under a stream of nitrogen and reconstituted into 250 μL of mobile phase. Of this, a 60 μL sample was then injected into the HPLC.

A short description of data set [2]: Plasma concentrations of phenserine and its metabolites in wistar rat plasma. The settings on record: in vivo; for concentration at 1 h: Hour 1; for concentration at 2 h: Hour 2.
Data set [3] can be described thus: Estimated EC50/IC50 of phenserine and metabolites for pharmacological activity in brain.
The next data set can be described thus: clinical. As to conditions: for t1/2 /Elim / Estimated Brain CMax: 15 mg immediate release dose; for Estimated Brain CMax: from plasma CMax and brain:plasma partitioning; for Cmax: human, in vivo, 15 mg. An excerpt: FIGS. 33-34 depict two graphs from an Excel spreadsheet. FIG. 33 is a linear plot of plasma level vs time and FIG. 34 is a semi-log plot of plasma conc. vs time.

Data set [4] is described as follows: Plasma concentrations of phenserine and its metabolites in beagle dog plasma. The settings on record: beagle, in vivo; for concentration at 1 h: Hour 1; for concentration at 2 h: Hour 2; for concentration at 3 h: Hour 3; for concentration at 4 h: Hour 4. It is filed as in vivo.
For data set [5] the following is noted: in vivo.

Several values for one entry are separate records, joined by “and”; a condition that tells them apart may be missing. Equal entries are not always repeated. Where two headings read alike, the source gives them in different places.

In the case of `CN1CC[C@]2(C)c3cc(OC(=O)Nc4ccccc4)ccc3N(C)[C@H]12` [(+)-phenserine, reference compound], the “cell proliferation (neurotrophic actions)” value in the data set with SH-SY5Y cells is given as “increasing cellular proliferation”.

As for `CC(=O)Oc1ccccc1C(=O)O` [ASA, acetylsalicylic acid, reference compound], the “oxidative stress-induced cellular death (cell viability)” value with SH-SY5Y neuronal cells (ASA 10^−5 M, (−)-Phen 10^−7 M, 10^−6 M, H2O2 50 μM, 18 hr) is on record as “no activity”.

As for `C[C@@]12CCN[C@@H]1Nc1ccc(OC(=O)Nc3ccccc3)cc12` [N1,N8-bisnor-phenserine, (−)-N1, N8-bisnorphenylcarbamoyleseroline], in data set [1], the concentration at 1 h was determined as 22.5 ng/mL, the concentration at 2 h was 14.5 ng/mL, the concentration at 3 h came to 7.62 ng/mL and the concentration at 4 h came to 6.55 ng/mL. In data set [2], the concentration at 1 h amounted to 536 ng/mL and the concentration at 2 h worked out at 539 ng/mL. In addition, the “Estimated EC50” value in data set [3] is 100 NanoMolar. Besides, the IC50 – broadly, the concentration that inhibits the measured activity by half – in data set [3] (BNPCE IC50+/−25, read-out: IC50 (estimated)) is 22 nM. Besides, in data set [3] (pharmacological activity in brain, read-out: estimated IC50), the half-inhibitory concentration (IC50) was 100 nM. Further, in the data set “clinical”, the “t1/2 /Elim” value lay within 0.53 to 1.29 h; the Cmax (in general, the peak of the concentration-time curve) is 22.5 ng/mL and 73.3 nM. Moreover, in the data set “clinical” (listed as N-1, N-8 BisNor P), the “Estimated Brain CMax” value was 28.8 ng/ml and 95.0 nM. In addition, in data set [4], the concentration at 1 h is 235 ng/mL, the concentration at 2 h came to 220 ng/mL, the concentration at 3 h came out at 428 ng/mL and the concentration at 4 h was found to be 351 ng/mL. The “brain:blood partition” value in data set [5] is listed as “approx. 1.3:1”.

With `CN1c2ccc(OC(=O)Nc3ccccc3)cc2[C@]2(C)CCN[C@H]12` [N1-nor-phenserine, (−)-N1-norphenylcarbamoyleseroline], in data set [1], the concentration at 1 h was 1.56 ng/mL, the concentration at 2 h was found to be 1.19 ng/mL, the concentration at 3 h was 0.8 ng/mL and the concentration at 4 h amounted to 0.53 ng/mL. Besides, in data set [2], the concentration at 1 h is 37.6 ng/mL and the concentration at 2 h turned out to be 26.2 ng/mL. In addition, the “Estimated EC50” value in data set [3] is given as 24-100 NanoMolar. Moreover, in “clinical”, the “t1/2 /Elim” value was 1.90 to 1.96 h; the “Estimated Brain CMax” value was 2.15 ng/ml and 6.6 nM; the Cmax is 1.56 ng/mL and 4.8 nM. This compound showed an expected plasma levels in the data set “clinical” (targeted 30 mg/d or 60 mg/d in sustained release formulation) of more than 1.0 ng/mL. In data set [4], the concentration at 1 h turned out to be 86.1 ng/mL, the concentration at 2 h turned out to be 50.3 ng/mL, the concentration at 3 h is 86.7 ng/mL and the concentration at 4 h turned out to be 41.9 ng/mL. The “brain:blood partition” value in data set [5] was “approx. 4:1”.

For `CN1CC[C@@]2(C)c3cc(OC(=O)Nc4ccccc4)ccc3N[C@@H]12` [N8-nor-phensereine, (−)-N8-norphenylcarbamoyleseroline], in data set [1], the concentration at 1 h turned out to be 11.2 ng/mL, the concentration at 2 h turned out to be 7.38 ng/mL, the concentration at 3 h was determined as 4.28 ng/mL and the concentration at 4 h is 3.61 ng/mL. Besides, in data set [2], the concentration at 1 h is 96.4 ng/mL and the concentration at 2 h came out at 69.2 ng/mL. Besides, the “Estimated EC50” value in data set [3] is listed as 24-100 NanoMolar. In addition, in the data set “clinical”, the “t1/2 /Elim” value fell in the range of 1.51 to 1.76 h; the “Estimated Brain CMax” value was 17.7 ng/ml and 52.9 nM; the Cmax is 11.2 ng/mL and 34.8 nM. For the same compound, in data set [4], the concentration at 1 h stood at 33.4 ng/mL, the concentration at 2 h amounted to 28.2 ng/mL, the concentration at 3 h worked out at 9.06 ng/mL and the concentration at 4 h was determined as 7.88 ng/mL. Moreover, the “brain:blood partition” value in data set [5] is listed as “approx. 6:1”.

With `COc1ccc2cc([C@H](C)C(=O)O)ccc2c1` [naproxen, reference compound], in the data set on SH-SY5Y neuronal cells (10 nM to 100,000 nM), the “tolerability by SH-SY5Y neuronal cells” value is given as “well tolerated” and the trophic actions entry is “does not show activity”.
